According to patent publication US7009045B2 (priority 2000, dated 2006):

Tests used:
Format in all cases: cell-based
[1] = test system: Candida famata regulatory mutants able to overproduce riboflavin; experiment: Sensitivity to copper ions, solid Burkholder medium (Table 12); design: key: +++: strong growth; ++: weak growth; —: absence of growth
Experimental: (§1) The sensitivity of the regulatory mutants of the yeast C. famata which overproduce riboflavin in iron rich medium probably due to defects in genes regulating repression (repression mutants), to different ions of heavy metals was studied. For this, the analyzed strains were streaked on the YPD plates and then were replica-plated on Burkholder synthetic medium containing leucine (40 μg/ml). The C.famata mutants L20105-40-1-11, L20105-40-1-17, L20105-3-2-1, L20105-3-2-8 and L20105-3-2-12 (all contained leu2 marker) accumulated 80–100 μg riboflavin/ml. The mutants #75, 4-48, 2-5 produced much higher amounts of riboflavin (200–250 μg/ml) but were prototrophs for leucine synthesis. Strain #75 was characterized by retarded growth comparing with other mutants. The strains VKM Y-9 (wild type) and L20105 (leu2) were used as the control strains.
(§2) Mutants overproducing lower amounts of riboflavin appeared to be more sensitive to CuSO4 (0.15 mM) than that of the strains producing higher amounts of riboflavin (inhibitory concentration 0.5 mM) (Table 12).

[2] = test system: Candida famata regulatory mutants able to overproduce riboflavin; experiment: as above; design: key: +++: strong growth; ++: weak growth; +: very weak growth; —: absence of growth
Experimental: as §1, §2

[3] = test system: Candida famata regulatory mutants unable to overproduce riboflavin; experiment: Sensitivity to K2Cr2O7, Burkholder medium (Table 10)
From the text: In the next experiments, the influence of cobalt and chromium ions on the growth and riboflavin synthesis of regulatory mutants having defects in derepression (derepression mutants) was studied.

## O=S(=O)([O-])[O-].[Cu+2] [CuSO4]
[1]; #2-5, Cu^+2 0.05 mM
  growth: +++
[1]; #2-5, Cu^+2 0.1 mM
  growth: +++
[1]; #2-5, Cu^+2 0.15 mM
  growth: +++
[1]; #2-5, Cu^+2 0.2 mM
  growth: +++
[1]; #2-5, Cu^+2 0.25 mM
  growth: +++
[1]; #2-5, Cu^+2 0.3 mM
  growth: ++
[1]; #2-5, Cu^+2 0.35 mM
  growth: ++
[1]; #2-5, Cu^+2 0.5 mM
  growth: —
[1]; #2-5, Cu^+2 0.55 mM
  growth: —
[1]; #2-5, Cu^+2 0.6 mM
  growth: —
[1]; #2-5, Cu^+2 0.65 mM
  growth: —
[1]; #2-5, Cu^+2 0.7 mM
  growth: —
[1]; #2-5, Cu^+2 0.75 mM
  growth: —
[1]; #2-5, Cu^+2 4 mM
  growth: ++
[1]; #2-5, Cu^+2 8 mM
  growth: —
[1]; #4-48, Cu^+2 0.05 mM
  growth: +++
[1]; #4-48, Cu^+2 0.1 mM
  growth: +++
[1]; #4-48, Cu^+2 0.15 mM
  growth: +++
[1]; #4-48, Cu^+2 0.2 mM
  growth: +++
[1]; #4-48, Cu^+2 0.25 mM
  growth: +++
[1]; #4-48, Cu^+2 0.3 mM
  growth: ++
[1]; #4-48, Cu^+2 0.35 mM
  growth: ++
[1]; #4-48, Cu^+2 0.5 mM
  growth: —
[1]; #4-48, Cu^+2 0.55 mM
  growth: —
[1]; #4-48, Cu^+2 0.6 mM
  growth: —
[1]; #4-48, Cu^+2 0.65 mM
  growth: —
[1]; #4-48, Cu^+2 0.7 mM
  growth: —
[1]; #4-48, Cu^+2 0.75 mM
  growth: —
[1]; #4-48, Cu^+2 4 mM
  growth: ++
[1]; #4-48, Cu^+2 8 mM
  growth: —
[1]; #75, Cu^+2 0.05 mM
  growth: +++
[1]; #75, Cu^+2 0.1 mM
  growth: +++
[1]; #75, Cu^+2 0.15 mM
  growth: +++
[1]; #75, Cu^+2 0.2 mM
  growth: +++
[1]; #75, Cu^+2 0.25 mM
  growth: +++
[1]; #75, Cu^+2 0.3 mM
  growth: ++
[1]; #75, Cu^+2 0.35 mM
  growth: ++
[1]; #75, Cu^+2 0.5 mM
  growth: —
[1]; #75, Cu^+2 0.55 mM
  growth: —
[1]; #75, Cu^+2 0.6 mM
  growth: —
[1]; #75, Cu^+2 0.65 mM
  growth: —
[1]; #75, Cu^+2 0.7 mM
  growth: —
[1]; #75, Cu^+2 0.75 mM
  growth: —
[1]; #75, Cu^+2 4 mM
  growth: ++
[1]; #75, Cu^+2 8 mM
  growth: —
[1]; L20105 (leu2), Cu^+2 0.45 mM
  growth: ++
[1]; L20105 (leu2), Cu^+2 0.5 mM
  growth: ++
[1]; L20105 (leu2), Cu^+2 0.55 mM
  growth: ++
[1]; L20105-3-2-4, Cu^+2 0.15 mM
  growth: —
[1]; L20105-3-2-4, Cu^+2 0.2 mM
  growth: —
[1]; L20105-3-2-4, Cu^+2 0.25 mM
  growth: —
[1]; L20105-3-2-4, Cu^+2 0.35 mM
  growth: —
[1]; L20105-3-2-4, Cu^+2 0.45 mM
  growth: —
[1]; L20105-3-2-4, Cu^+2 0.5 mM
  growth: —
[1]; L20105-3-2-4, Cu^+2 0.55 mM
  growth: —
[1]; L20105-3-2-4, Cu^+2 0.6 mM
  growth: —
[1]; L20105-3-2-4, Cu^+2 0.65 mM
  growth: —
[1]; L20105-3-2-4, Cu^+2 0.7 mM
  growth: —
[1]; L20105-3-2-4, Cu^+2 0.75 mM
  growth: —
[1]; L20105-3-2-4, Cu^+2 4 mM
  growth: —
[1]; L20105-3-2-8, Cu^+2 0.05 mM
  growth: ++
[1]; L20105-3-2-8, Cu^+2 0.15 mM
  growth: —
[1]; L20105-3-2-8, Cu^+2 0.2 mM
  growth: —
[1]; L20105-3-2-8, Cu^+2 0.25 mM
  growth: —
[1]; L20105-3-2-8, Cu^+2 0.3 mM
  growth: —
[1]; L20105-3-2-8, Cu^+2 0.35 mM
  growth: —
[1]; L20105-3-2-8, Cu^+2 0.45 mM
  growth: —
[1]; L20105-3-2-8, Cu^+2 0.5 mM
  growth: —
[1]; L20105-3-2-8, Cu^+2 0.55 mM
  growth: —
[1]; L20105-3-2-8, Cu^+2 0.6 mM
  growth: —
[1]; L20105-3-2-8, Cu^+2 0.65 mM
  growth: —
[1]; L20105-3-2-8, Cu^+2 0.7 mM
  growth: —
[1]; L20105-3-2-8, Cu^+2 0.75 mM
  growth: —
[1]; L20105-3-2-8, Cu^+2 4 mM
  growth: —
[1]; L20105-3-2-8, Cu^+2 8 mM
  growth: —
[1]; L20105-3-2-12, Cu^+2 0.05 mM
  growth: ++
[1]; L20105-3-2-12, Cu^+2 0.15 mM
  growth: —
[1]; L20105-3-2-12, Cu^+2 0.2 mM
  growth: —
[1]; L20105-3-2-12, Cu^+2 0.25 mM
  growth: —
[1]; L20105-3-2-12, Cu^+2 0.3 mM
  growth: —
[1]; L20105-3-2-12, Cu^+2 0.35 mM
  growth: —
[1]; L20105-3-2-12, Cu^+2 0.45 mM
  growth: —
[1]; L20105-3-2-12, Cu^+2 0.5 mM
  growth: —
[1]; L20105-3-2-12, Cu^+2 0.55 mM
  growth: —
[1]; L20105-3-2-12, Cu^+2 0.6 mM
  growth: —
[1]; L20105-3-2-12, Cu^+2 0.65 mM
  growth: —
[1]; L20105-3-2-12, Cu^+2 0.7 mM
  growth: —
[1]; L20105-3-2-12, Cu^+2 0.75 mM
  growth: —
[1]; L20105-3-2-12, Cu^+2 4 mM
  growth: —
[1]; L20105-3-2-12, Cu^+2 8 mM
  growth: —
[2]; #2-5, Cu^+2 0.45 mM
  growth: +
[2]; #4-48, Cu^+2 0.45 mM
  growth: +
[2]; #75, Cu^+2 0.45 mM
  growth: +
[2]; L20105 (leu2), Cu^+2 0.6 mM
  growth: +
[2]; L20105-3-2-4, Cu^+2 0.1 mM
  growth: +
[2]; L20105-3-2-8, Cu^+2 0.1 mM
  growth: +
[2]; L20105-3-2-12, Cu^+2 0.1 mM
  growth: +

## [K+].[K+].[O]=[Cr](=[O])([O-])[O][Cr](=[O])(=[O])[O-] [K2Cr2O7]
[3]; Cr^+6 0.15 mM
  growth of wild-type strains VKM Y-9 and L20105 (leu2): grow at this concentration quite satisfactory
[3]; Cr^+6 ions as K2Cr2O7
  concentration toxic for the derepression mutants: 0.15 mM
